ChEMBL document CHEMBL4043296 (J Med Chem, 2018)

Experiments:
[1] = biological target: D(2) dopamine receptor (Homo sapiens, UniProt P14416); test: Displacement of [3H]N-methylspiperone from human dopamine D2 receptor expressed in HEK293 cell membranes after 1 hr by scintillation counting method
[2] = biological target: T1, Muscarinic acetylcholine receptor M5 (Homo sapiens, UniProt P08912); test: Displacement of [3H]NMS from human muscarinic M5 receptor expressed in CHO cell membranes after 2 hrs by liquid scintillation counting method
T1 sequence (P08912 whole entry): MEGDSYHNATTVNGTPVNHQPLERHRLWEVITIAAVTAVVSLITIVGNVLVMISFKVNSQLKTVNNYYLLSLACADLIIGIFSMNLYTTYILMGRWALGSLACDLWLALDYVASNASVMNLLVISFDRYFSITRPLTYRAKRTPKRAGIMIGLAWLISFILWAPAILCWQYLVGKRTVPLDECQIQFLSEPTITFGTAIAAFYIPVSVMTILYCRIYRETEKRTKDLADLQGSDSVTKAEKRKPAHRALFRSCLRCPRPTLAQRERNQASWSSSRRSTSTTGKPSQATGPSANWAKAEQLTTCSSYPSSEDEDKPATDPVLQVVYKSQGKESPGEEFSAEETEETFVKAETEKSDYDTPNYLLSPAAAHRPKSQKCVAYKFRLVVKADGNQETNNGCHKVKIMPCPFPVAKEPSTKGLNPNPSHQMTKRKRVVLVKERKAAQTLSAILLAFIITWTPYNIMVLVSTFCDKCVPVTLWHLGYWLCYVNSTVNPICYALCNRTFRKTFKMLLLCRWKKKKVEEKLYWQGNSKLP

[3] = biological target: T2, Muscarinic acetylcholine receptor M2 (Homo sapiens, UniProt P08172); test: Displacement of [3H]NMS from human muscarinic M2 receptor expressed in CHO cell membranes after 2 hrs by liquid scintillation counting method
T2 sequence (P08172 whole entry): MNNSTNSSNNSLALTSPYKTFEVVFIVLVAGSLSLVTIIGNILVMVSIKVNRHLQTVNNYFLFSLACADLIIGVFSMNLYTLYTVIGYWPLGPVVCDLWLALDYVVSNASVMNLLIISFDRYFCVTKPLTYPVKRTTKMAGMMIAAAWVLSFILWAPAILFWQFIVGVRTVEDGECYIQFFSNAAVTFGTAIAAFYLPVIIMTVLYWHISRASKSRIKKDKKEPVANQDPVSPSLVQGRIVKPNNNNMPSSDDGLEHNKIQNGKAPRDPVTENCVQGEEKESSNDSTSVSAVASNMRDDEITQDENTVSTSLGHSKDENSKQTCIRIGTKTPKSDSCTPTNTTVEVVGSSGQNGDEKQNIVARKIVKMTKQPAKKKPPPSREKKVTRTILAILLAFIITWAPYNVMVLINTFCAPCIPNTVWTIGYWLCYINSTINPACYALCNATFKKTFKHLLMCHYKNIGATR

[4] = biological target: T3, Muscarinic acetylcholine receptor M1 (Homo sapiens, UniProt P11229); test: Displacement of [3H]NMS from human muscarinic M1 receptor expressed in CHO cell membranes after 2 hrs by liquid scintillation counting method
T3 sequence (P11229 whole entry): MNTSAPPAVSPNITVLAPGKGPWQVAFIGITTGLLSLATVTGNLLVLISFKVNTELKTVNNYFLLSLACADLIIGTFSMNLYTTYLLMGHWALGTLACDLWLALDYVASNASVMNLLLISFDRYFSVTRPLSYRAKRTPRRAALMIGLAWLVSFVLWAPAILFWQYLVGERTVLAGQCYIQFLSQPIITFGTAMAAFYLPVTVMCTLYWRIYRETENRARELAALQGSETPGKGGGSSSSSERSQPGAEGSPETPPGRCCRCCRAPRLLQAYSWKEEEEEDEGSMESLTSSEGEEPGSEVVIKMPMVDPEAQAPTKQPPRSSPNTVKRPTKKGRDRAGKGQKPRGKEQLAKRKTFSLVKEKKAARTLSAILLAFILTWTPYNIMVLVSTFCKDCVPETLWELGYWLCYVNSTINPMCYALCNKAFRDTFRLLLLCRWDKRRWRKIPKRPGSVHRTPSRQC

[5] = biological target: T4, D(4) dopamine receptor (Homo sapiens, UniProt P21917); test: Displacement of [3H]N-methylspiperone from human dopamine D4 receptor expressed in HEK293 cell membranes after 1 hr by scintillation counting method
T4 sequence (P21917 whole entry): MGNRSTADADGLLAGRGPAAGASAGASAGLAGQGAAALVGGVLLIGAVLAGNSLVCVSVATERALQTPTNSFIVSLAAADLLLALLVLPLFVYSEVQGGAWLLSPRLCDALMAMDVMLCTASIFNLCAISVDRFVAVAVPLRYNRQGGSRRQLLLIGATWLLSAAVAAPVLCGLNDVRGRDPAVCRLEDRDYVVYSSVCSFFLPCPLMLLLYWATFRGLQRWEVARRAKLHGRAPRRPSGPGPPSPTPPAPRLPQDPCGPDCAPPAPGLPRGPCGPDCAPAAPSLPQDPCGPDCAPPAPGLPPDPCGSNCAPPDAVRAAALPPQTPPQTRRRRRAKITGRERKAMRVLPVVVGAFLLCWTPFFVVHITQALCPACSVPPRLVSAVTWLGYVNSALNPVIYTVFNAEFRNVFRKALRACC

[6] = biological target: D(3) dopamine receptor (Homo sapiens, UniProt P35462); test: Displacement of [3H]N-methylspiperone from human dopamine D3 receptor expressed in HEK293 cell membranes after 1 hr by scintillation counting method
Chain of D(3) dopamine receptor (P35462 whole entry): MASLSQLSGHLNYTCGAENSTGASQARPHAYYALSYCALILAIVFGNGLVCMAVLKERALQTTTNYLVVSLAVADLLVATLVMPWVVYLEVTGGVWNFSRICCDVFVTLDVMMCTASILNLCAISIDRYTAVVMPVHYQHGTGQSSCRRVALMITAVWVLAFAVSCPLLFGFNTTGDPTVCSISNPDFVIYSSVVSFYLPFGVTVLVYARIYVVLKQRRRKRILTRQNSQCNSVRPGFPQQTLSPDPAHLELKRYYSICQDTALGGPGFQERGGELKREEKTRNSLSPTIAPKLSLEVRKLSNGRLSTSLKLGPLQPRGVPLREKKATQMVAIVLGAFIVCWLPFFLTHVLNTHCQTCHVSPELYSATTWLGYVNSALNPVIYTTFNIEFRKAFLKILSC

[7] = biological target: T5, Muscarinic acetylcholine receptor M4 (Homo sapiens, UniProt P08173); test: Displacement of [3H]NMS from human muscarinic M4 receptor expressed in CHO cell membranes after 2 hrs by liquid scintillation counting method
T5 sequence (P08173 whole entry): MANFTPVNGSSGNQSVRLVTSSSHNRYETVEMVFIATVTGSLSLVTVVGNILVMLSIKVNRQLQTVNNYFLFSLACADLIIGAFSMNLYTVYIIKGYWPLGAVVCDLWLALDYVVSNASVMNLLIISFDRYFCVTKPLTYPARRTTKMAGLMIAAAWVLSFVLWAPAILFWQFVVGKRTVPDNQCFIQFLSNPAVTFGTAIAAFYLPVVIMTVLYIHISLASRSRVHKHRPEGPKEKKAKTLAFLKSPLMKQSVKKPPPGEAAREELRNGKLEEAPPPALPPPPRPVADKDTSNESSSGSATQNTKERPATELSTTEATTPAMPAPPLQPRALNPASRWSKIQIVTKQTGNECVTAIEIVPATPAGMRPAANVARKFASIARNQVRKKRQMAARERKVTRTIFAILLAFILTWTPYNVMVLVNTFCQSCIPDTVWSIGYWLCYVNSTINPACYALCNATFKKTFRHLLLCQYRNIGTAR

[8] = biological target: Muscarinic acetylcholine receptor M3 (Homo sapiens, UniProt P20309); test: Displacement of [3H]NMS from human muscarinic M3 receptor expressed in CHO cell membranes after 2 hrs by liquid scintillation counting method
Chain of Muscarinic acetylcholine receptor M3 (P20309 whole entry): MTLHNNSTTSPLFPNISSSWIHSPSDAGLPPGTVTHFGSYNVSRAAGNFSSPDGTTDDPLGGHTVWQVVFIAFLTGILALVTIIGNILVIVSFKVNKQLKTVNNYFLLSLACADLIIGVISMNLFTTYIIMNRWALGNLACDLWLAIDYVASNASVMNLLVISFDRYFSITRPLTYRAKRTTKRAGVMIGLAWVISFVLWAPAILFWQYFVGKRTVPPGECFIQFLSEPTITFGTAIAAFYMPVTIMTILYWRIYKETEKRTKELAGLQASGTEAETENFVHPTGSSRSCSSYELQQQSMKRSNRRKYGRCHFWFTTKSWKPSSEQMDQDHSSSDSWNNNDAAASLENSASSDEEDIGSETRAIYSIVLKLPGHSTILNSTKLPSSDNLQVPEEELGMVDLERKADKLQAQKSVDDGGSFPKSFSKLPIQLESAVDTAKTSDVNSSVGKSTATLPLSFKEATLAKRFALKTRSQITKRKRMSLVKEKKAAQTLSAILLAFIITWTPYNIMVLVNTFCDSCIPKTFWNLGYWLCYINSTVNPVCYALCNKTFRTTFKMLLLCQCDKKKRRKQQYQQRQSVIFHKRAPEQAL

[9] = organism: Homo sapiens; test: Selectivity ratio of Ki for human dopamine D2 receptor to Ki for human dopamine D4 receptor
[10] = biological target: T4, D(4) dopamine receptor; test: Antagonist activity at human SP/Myc epitope-tagged dopamine D4 receptor expressed in HEK293T cells assessed as inhibition of dopamine-induced mVenus-fused beta-arrestin2 recruitment preincubated for 15 mins followed by dopamine induction measured after 2 mins by BRET assay; format: cell-based, HEK-293T
[11] = biological target: T4, D(4) dopamine receptor; test: Antagonist activity at human SP/Myc epitope-tagged dopamine D4 receptor expressed in HEK293T cells assessed as inhibition of dopamine-induced RLuc8-fused Galphai1 activation preincubated for 15 mins followed by dopamine induction measured after 2 mins by BRET assay; format: cell-based, HEK-293T

Chain of D(2) dopamine receptor (P14416 whole entry): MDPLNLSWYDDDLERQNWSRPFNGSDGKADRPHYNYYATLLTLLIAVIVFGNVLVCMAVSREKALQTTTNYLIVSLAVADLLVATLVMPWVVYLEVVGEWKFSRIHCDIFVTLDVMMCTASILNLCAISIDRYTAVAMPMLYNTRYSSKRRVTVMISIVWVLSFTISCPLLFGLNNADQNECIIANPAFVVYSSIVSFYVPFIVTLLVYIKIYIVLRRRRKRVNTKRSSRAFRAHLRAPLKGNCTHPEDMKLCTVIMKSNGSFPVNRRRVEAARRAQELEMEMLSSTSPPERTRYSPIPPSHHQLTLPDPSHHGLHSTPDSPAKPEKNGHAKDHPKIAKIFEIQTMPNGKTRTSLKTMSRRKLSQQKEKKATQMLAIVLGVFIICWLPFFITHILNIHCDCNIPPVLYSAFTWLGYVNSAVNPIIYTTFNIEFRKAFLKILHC

| Ki [1] [nM] | Ki [2] [nM] | Ki [3] [nM] | Ki [4] [nM] | Ki [5] [nM] | Ki [6] [nM] | Ki [7] [nM] | Ki [8] [nM] | Ratio Ki [9] | IC50 [10] [nM] | IC50 [11] [nM] | Compound |
| --- | --- | --- | --- | --- | --- | --- | --- | --- | --- | --- | --- |
| 525 | 3550 | 562 | 490 | 1.38 | 282 | 575 | 1350 | 380 |  |  | CCCCCC1CCN(CCCN2C(=O)CCc3ccccc32)CC1 |
| 5750 | 7940 | 1780 | 2290 | 28.8 | 3980 | 5130 | 6610 | 200 |  |  | O=C1CCc2ccccc2N1CCCN1CCN(CCc2ccccc2)CC1 |
| 5130 | 9120 | 4170 | 2690 | 316 | 3890 | 3160 | 7080 | 16 |  |  | CCCCN1CCN(CCCN2C(=O)CCc3ccccc32)CC1 |
| 288 | 759 | 204 | 263 | 2.14 | 407 | 200 | 501 | 135 |  |  | O=C1CCc2ccccc2N1CCCN1CCC(CCc2ccccc2)CC1 |
| 912 | 1950 | 1910 | 2510 | 5.25 | 1550 | 1660 | 2340 | 174 |  |  | CCCC1CCN(CCCN2C(=O)CCc3ccccc32)CC1 |
| 1170 |  |  |  | 4.37 | 676 |  |  | 269 | 151 | 126 | O=C1CCc2ccccc2N1CCCN1CCC(CCCCCO)CC1 |
| 4470 | 24000 | 11500 | 12000 | 257 | 3720 | 9330 | 14100 | 17 |  |  | CC1CCN(CCCN2C(=O)CCc3ccccc32)CC1 |
| 457 | 2040 | 2400 | 2880 | 1.95 | 708 | 1290 | 4680 | 234 |  |  | O=C1CCc2ccccc2N1CCCN1CCC(c2ccccc2)CC1 |
